Test results: ChEMBL document CHEMBL5291721, “A preclinical secondary pharmacology resource illuminates target-adverse drug reaction associations of marketed drugs” (Nat Commun, 2023)
Where a SMILES comes first, the peptide text is derived from it. [ ]: non-standard residue; d: D form. pGlu = O=C1CC[C@@H](C(=O)O)N1; Thz = O=C(O)[C@@H]1CSCN1

Key:
[1] = biological target: T1, Alpha-1A adrenergic receptor (Homo sapiens, UniProt P35348); assay type: functional, cell-based
T1 sequence (P35348 whole entry): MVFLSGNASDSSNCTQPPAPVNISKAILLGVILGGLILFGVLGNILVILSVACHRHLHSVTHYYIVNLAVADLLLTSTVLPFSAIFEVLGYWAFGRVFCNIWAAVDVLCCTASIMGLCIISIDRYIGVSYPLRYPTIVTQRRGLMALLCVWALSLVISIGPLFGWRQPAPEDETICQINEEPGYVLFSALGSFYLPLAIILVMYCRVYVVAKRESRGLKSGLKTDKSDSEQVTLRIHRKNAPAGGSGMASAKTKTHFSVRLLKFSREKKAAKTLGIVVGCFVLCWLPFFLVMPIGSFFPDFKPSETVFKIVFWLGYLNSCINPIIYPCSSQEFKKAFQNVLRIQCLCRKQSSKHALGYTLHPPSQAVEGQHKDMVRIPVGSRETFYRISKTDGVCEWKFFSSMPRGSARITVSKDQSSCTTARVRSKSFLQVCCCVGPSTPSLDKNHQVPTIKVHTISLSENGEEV

Androgen receptor [2] = biological target: T2, Androgen receptor (Rattus norvegicus, UniProt P15207); assay type: functional
T2 sequence (P15207 whole entry): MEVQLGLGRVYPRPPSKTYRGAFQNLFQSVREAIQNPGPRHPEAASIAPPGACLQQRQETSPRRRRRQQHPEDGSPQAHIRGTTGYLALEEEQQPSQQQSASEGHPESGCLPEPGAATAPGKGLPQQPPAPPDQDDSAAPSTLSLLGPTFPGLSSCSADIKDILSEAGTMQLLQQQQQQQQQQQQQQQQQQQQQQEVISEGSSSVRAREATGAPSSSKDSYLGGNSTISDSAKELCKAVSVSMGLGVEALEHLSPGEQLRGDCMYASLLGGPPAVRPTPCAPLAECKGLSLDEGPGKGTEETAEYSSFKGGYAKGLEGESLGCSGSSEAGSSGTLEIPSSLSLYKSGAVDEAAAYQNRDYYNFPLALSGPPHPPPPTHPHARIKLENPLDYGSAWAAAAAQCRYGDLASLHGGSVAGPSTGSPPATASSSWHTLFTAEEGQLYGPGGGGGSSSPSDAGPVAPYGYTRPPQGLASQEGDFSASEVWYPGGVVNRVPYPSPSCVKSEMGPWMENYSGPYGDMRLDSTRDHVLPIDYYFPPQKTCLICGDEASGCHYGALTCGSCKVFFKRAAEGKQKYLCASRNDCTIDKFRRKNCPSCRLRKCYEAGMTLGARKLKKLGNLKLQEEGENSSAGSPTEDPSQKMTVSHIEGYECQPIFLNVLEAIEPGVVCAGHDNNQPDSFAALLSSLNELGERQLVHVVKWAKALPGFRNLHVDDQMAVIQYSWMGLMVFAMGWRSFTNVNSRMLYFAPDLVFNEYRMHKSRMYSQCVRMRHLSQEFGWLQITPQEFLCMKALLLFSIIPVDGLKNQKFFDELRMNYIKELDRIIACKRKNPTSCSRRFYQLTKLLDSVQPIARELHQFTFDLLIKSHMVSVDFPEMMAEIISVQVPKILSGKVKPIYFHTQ

Estrogen receptor = biological target: T3, Estrogen receptor (Homo sapiens, UniProt P03372)
T3 sequence (P03372 whole entry): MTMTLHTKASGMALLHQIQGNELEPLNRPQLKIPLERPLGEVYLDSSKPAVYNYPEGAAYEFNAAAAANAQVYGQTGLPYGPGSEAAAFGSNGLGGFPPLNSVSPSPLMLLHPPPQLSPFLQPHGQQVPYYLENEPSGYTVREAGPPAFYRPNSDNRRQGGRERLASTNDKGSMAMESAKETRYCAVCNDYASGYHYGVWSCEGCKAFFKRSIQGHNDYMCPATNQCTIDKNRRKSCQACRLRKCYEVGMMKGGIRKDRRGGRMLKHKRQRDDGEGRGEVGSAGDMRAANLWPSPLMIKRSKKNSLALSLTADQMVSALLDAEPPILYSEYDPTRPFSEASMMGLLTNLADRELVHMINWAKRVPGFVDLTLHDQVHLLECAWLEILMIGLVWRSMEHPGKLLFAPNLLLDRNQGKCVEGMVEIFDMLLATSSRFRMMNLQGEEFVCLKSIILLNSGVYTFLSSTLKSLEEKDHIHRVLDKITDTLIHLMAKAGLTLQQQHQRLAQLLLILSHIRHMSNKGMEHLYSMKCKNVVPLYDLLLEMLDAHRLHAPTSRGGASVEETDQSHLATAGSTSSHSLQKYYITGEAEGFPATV

Androgen receptor [3] = biological target: T2, Androgen receptor; assay type: functional; remark: listed apart in the source
[4] = biological target: T4, 5-hydroxytryptamine receptor 1A (Homo sapiens, UniProt P08908)
T4 sequence (P08908 whole entry): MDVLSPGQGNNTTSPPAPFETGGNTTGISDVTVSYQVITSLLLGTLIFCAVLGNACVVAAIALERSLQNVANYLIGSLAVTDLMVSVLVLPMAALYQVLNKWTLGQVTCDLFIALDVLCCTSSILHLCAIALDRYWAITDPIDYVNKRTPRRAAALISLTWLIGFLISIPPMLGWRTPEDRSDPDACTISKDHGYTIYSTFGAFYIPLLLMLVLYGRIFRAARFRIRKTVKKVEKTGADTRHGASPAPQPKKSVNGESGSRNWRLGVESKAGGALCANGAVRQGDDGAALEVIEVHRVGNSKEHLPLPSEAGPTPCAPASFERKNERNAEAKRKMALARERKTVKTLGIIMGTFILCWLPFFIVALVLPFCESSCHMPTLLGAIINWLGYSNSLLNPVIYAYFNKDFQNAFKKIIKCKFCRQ
Note: assay procedure not described here.

Compound | AC50 [1] [µM] | AC50 (Androgen receptor [2]) [µM] | AC50 (Estrogen receptor) [µM] | AC50 (Androgen receptor [3]) [µM] | AC50 [4] [µM]
Oc1cc(O)c(Cl)cn1 | 26 | – | – | – | –
CC(C)N(CCCCOCC(=O)O)c1cnc(-c2ccccc2)c(-c2ccccc2)n1 | > 30 | > 30 | > 30 | 19 | –
C[N+]12CCC(CC1)C(OC(=O)C(O)(c1ccccc1)c1ccccc1)C2 (stereo unspecified) | > 30 | – | – | – | –
COc1ccc(C2C(=O)c3ccccc3C2=O)cc1 [ANISINDIONE] | – | – | > 30 | – | –
O=C(O)CCNC(=O)c1ccc(/N=N/c2ccc(O)c(C(=O)O)c2)cc1 [BALSALAZIDE] | – | – | > 30 | – | –
NS(=O)(=O)c1cc2c(cc1Cl)N=C(CSCc1ccccc1)NS2(=O)=O [BENZTHIAZIDE] | – | – | > 30 | – | –
O=C(CCCN1CCC(O)(c2ccc(Br)cc2)CC1)c1ccc(F)cc1 [BROMPERIDOL] | 0.28 | – | > 30 | – | –
Clc1ccc(CCC(Cn2ccnc2)Sc2c(Cl)cccc2Cl)cc1 (stereo unspecified) [BUTOCONAZOLE] | > 30 | > 30 | 20 | 9.2 | –
CO/N=C(\C(=O)N[C@@H]1C(=O)N2C(C(=O)O)=CCS[C@H]12)c1csc(N)n1 [CEFTIZOXIME] | > 30 | – | > 30 | – | –
CO/N=C(\C(=O)N[C@@H]1C(=O)N2C(C(=O)O)=C(CSc3nc(=O)c(=O)[nH]n3C)CS[C@H]12)c1csc(N)n1 [CEFTRIAXONE] | > 30 | – | > 30 | – | –
COc1cc(N)c(Cl)cc1C(=O)NC1CCN(CCCOc2ccc(F)cc2)CC1OC (stereo unspecified) [CISAPRIDE] | – | – | > 30 | – | > 10
CCOC(=O)C(C)(C)Oc1ccc(Cl)cc1 [CLOFIBRATE] | > 30 | – | > 30 | – | > 10
CC(C)[C@@H](C)/C=C/[C@@H](C)[C@H]1CC[C@H]2/C(=C/C=C3\C[C@@H](O)CC[C@@H]3C)CCC[C@]12C [DIHYDROTACHYSTEROL] | – | – | > 30 | – | –
Oc1ccc(CCNCCCCCCNCCc2ccccc2)cc1O [DOPEXAMINE] | 1.4 | – | > 30 | – | –
CCN1CC(CCN2CCOCC2)C(c2ccccc2)(c2ccccc2)C1=O (stereo unspecified) [DOXAPRAM] | > 30 | – | – | – | –
CCCCOc1ccc(C(=O)CCN2CCCCC2)cc1 [DYCLONINE] | > 30 | – | > 30 | – | > 10
CC(C)NC[C@H](O)COc1ccc(CC(N)=O)cc1 [ESATENOLOL] | – | – | > 30 | – | > 10
CCc1cc2c(s1)-n1c(C)nnc1CN=C2c1ccccc1Cl [ETIZOLAM] | > 30 | – | > 30 | – | –
CC/C=C\C/C=C\C/C=C\C/C=C\C/C=C\CCCC(=O)OCC [ICOSAPENT ETHYL] | > 30 | > 30 | > 10 | 23 | –
NNC(=O)c1ccncc1 [ISONIAZID] | > 30 | – | > 30 | – | > 10
COc1ccc(CN2CCN(C(c3ccc(F)cc3)c3ccc(F)cc3)CC2)c(OC)c1OC [LOMERIZINE] | 8.2 | – | – | – | –
CN1CCN=C(c2ccccc2)c2cc(Cl)ccc21 [MEDAZEPAM] | 19 | – | – | – | –
COc1ccc2cc(CCC(C)=O)ccc2c1 [NABUMETONE] | > 30 | – | – | – | –

Compound | AC50 [1] [µM] | AC50 (Androgen receptor [2]) [µM] | AC50 (Estrogen receptor) [µM] | AC50 (Androgen receptor [3]) [µM] | AC50 [4] [µM]
Cc1ccnc2c1NC(=O)c1cccnc1N2C1CC1 [NEVIRAPINE] | > 30 | – | – | – | > 10
O=C(NCCO[N+](=O)[O-])c1cccnc1 [NICORANDIL] | > 30 | – | – | – | –
CO[C@H]1C[C@H](O[C@H]2CC[C@@]3(C)[C@H](CC[C@@H]4[C@@H]3CC[C@]3(C)[C@@H](C5=CC(=O)OC5)[C@@H](OC(C)=O)C[C@]43O)C2)O[C@@H](C)[C@@H]1O [OLEANDRIN] | > 30 | – | – | – | –
O=c1[nH]c2ccccc2n1CCCN1CCN(C(c2ccccc2)c2ccccc2)CC1 [OXATOMIDE] | 4.1 | – | – | – | –
C[C@]12C/C(=C/O)C(=O)C[C@@H]1CC[C@@H]1[C@@H]2CC[C@@]2(C)[C@H]1CC[C@]2(C)O [OXYMETHOLONE] | > 30 | – | > 30 | – | –
NC(=O)NC(=O)Cc1ccccc1 [PHENACEMIDE] | – | – | > 10 | – | –
c1ccc(C2(N3CCCCC3)CCCCC2)cc1 [PHENCYCLIDINE] | > 30 | > 30 | – | > 30 | –
OC[C@H]1O[C@@H](Oc2cc(O)cc(/C=C/c3ccc(O)cc3)c2)[C@H](O)[C@@H](O)[C@@H]1O [PICEID] | 19 | > 30 | > 30 | > 30 | –
O=C1CC[C@@H](C(=O)N2CSC[C@H]2C(=O)O)N1 [PIDOTIMOD] ([pGlu]-[Thz]-OH) | > 30 | > 30 | > 30 | > 30 | –
COc1cc(C(=O)OCc2cccc(COC(=O)c3cc(OC)c(OC)c(OC)c3)n2)cc(OC)c1OC [PIROZADIL] | – | > 30 | – | > 30 | –
CCC(=O)O[C@](Cc1ccccc1)(c1ccccc1)[C@H](C)CN(C)C [PROPOXYPHENE] | > 30 | – | – | – | > 10
CCc1nc(N)nc(N)c1-c1ccc(Cl)cc1 [PYRIMETHAMINE] | > 30 | – | > 10 | – | > 10
O=c1c(O)c(-c2ccc(O)c(O)c2)oc2cc(O)cc(O)c12 [QUERCETIN] | – | – | > 30 | – | > 10
CC1=C(/C=C/C(C)=C/C=C/C(C)=C/CO)C(C)(C)CCC1 [RETINOL] | – | – | > 30 | – | –
C=CC[N+]1([C@H]2C[C@H]3[C@@H]4CC[C@H]5C[C@H](O)[C@@H](N6CCOCC6)C[C@]5(C)[C@H]4CC[C@]3(C)[C@H]2OC(C)=O)CCCC1 [ROCURONIUM] | > 30 | – | > 30 | – | –
CCCN1CCCC[C@H]1C(=O)Nc1c(C)cccc1C [ROPIVACAINE] | > 30 | – | – | – | –
CCN1CCCC1CNC(=O)c1cc(S(=O)(=O)CC)ccc1OC (stereo unspecified) [SULTOPRIDE] | – | > 30 | – | > 30 | –
C=CCN1CCc2nc(N)sc2CC1 [TALIPEXOLE] | – | > 30 | – | > 30 | –
CCOC(=O)c1ccc(C#Cc2ccc3c(c2)C(C)(C)CCS3)nc1 [TAZAROTENE] | > 30 | – | – | – | > 10
CCOC(=O)[C@@H](N)Cc1ccc(-c2cc(O[C@H](c3ccc(Cl)cc3-n3ccc(C)n3)C(F)(F)F)nc(N)n2)cc1 [TELOTRISTAT ETHYL] | > 30 | > 30 | – | > 30 | –
Cn1c(=O)c2c(ncn2CCOC(=O)C(C)(C)Oc2ccc(Cl)cc2)n(C)c1=O [THEOFIBRATE] | > 30 | – | > 30 | – | –
COc1cc(C(=O)NC2CCCNC2)cc(OC)c1OC (stereo unspecified) [TROXIPIDE] | > 30 | – | – | – | –
CC(C)(C)NCC(O)c1ccccc1Cl (stereo unspecified) [TULOBUTEROL] | > 30 | – | > 30 | – | –
